# Laboratory results: US11319337B2, “3-desoxy derivative and pharmaceutical compositions thereof” (Intercept Pharmaceuticals, Inc., priority 2016, dated 2022)
# Counter-ions that a name gives are not always drawn. Like-named read-outs stand apart in the source and are kept apart here.
# How the values were obtained:
# Water solubility = type: physicochemical; details: BA as protonated species, hs = highly soluble, read-out: Ws (water solubility)
# Experimental: (§1) Physiochemical properties of Compound 1 such as water solubility, critical micellar concentration, surface tension, and LogPA were determined using methods known in the art.
# [1] = Critical micellar concentration; type: physicochemical; details: in […] NaCl water solution
# Surface tension at CMC = type: physicochemical; details: in […] NaCl water solution; in mN/m (unit assumed)
# Experimental: as §1
# [2] = 1-octanol-water partition coefficient (LogPA-); type: physicochemical; details: bile acids as ionized species
# Experimental: as §1
# Human FXR = target: T1, Human FXR (Homo sapiens, UniProt Q96RI1); assay: AlphaScreen assay, FXR-LBD-GST / SRC-1 LXXLL peptide recruitment; type: biochemical
# T1 construct: Human FXR-LBD-GST was incubated
# T1 sequence (Q96RI1 262-486 limits assumed): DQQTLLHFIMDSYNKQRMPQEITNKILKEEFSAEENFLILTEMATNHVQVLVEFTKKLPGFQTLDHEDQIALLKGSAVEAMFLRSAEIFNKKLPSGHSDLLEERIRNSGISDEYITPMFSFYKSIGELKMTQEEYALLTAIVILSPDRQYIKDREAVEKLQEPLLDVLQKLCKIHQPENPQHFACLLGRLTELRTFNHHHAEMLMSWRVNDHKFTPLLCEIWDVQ
# Human TGR5 = target: T2, Human TGR5 (Homo sapiens, UniProt Q8TDU6); assay: HTR-FRET intracellular cAMP assay in NCI-H716 cells; type: cell-based
# T2 construct: Human enteroendocrine NCI-H716 cells constitutively expressing TGR5; endogenous in cells; host or cells: NCI-H716
# T2 sequence (Q8TDU6 1-330): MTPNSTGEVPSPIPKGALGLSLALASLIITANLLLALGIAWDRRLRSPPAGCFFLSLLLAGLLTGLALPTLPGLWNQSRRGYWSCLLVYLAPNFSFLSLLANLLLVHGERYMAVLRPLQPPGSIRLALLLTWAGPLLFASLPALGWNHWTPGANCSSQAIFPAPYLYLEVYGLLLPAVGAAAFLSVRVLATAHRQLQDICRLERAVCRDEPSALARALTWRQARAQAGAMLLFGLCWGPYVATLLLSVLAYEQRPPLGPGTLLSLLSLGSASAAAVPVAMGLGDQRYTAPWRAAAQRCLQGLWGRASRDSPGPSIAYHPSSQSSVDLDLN
# mFXR = mFXR (Mus musculus, UniProt Q60641); assay: FXR cross species activity, mFXR; type: biochemical; details: Table 2, cross species
# rFXR = rFXR (Rattus norvegicus, UniProt Q62735); assay: FXR cross species activity, rFXR; type: biochemical; details: Table 2, cross species
# dFXR = target: T3, dFXR (Canis lupus familiaris, UniProt A0A8I3N2S7); assay: FXR cross species activity, dFXR; type: biochemical, dog; details: Table 2, cross species
# T3 construct: printed for the human protein only; fused on or other part: GST tag, printed only for the human construct
# mTGR5 = mTGR5 (Mus musculus, UniProt Q80SS6); assay: TGR5 cross species activity, mTGR5; type: cell-based; details: Table 3, cross species
# rTGR5 = rTGR5 (Rattus norvegicus, UniProt Q80T02); assay: TGR5 cross species activity, rTGR5; type: cell-based; details: Table 3, cross species
# dTGR5 = dTGR5 (Canis lupus familiaris, UniProt A0A8I3PZA6); assay: TGR5 cross species activity, dTGR5; type: cell-based, dog; details: Table 3, cross species
# LXRα = LXRα (Homo sapiens, UniProt Q13133); assay: AlphaScreen nuclear receptor profile (agonist mode), LXRα; type: biochemical
# CAR = CAR (Homo sapiens, UniProt Q14994); assay: AlphaScreen nuclear receptor profile (agonist mode), CAR; type: biochemical
# LXRβ = LXRβ (Homo sapiens, UniProt P55055); assay: AlphaScreen nuclear receptor profile (agonist mode), LXRβ; type: biochemical
# PPARα = PPARα (Homo sapiens, UniProt Q07869); assay: AlphaScreen nuclear receptor profile (agonist mode), PPARα; type: biochemical
# PPARδ = PPARδ (Homo sapiens, UniProt Q03181); assay: AlphaScreen nuclear receptor profile (agonist mode), PPARδ; type: biochemical
# From the text: Using the AlphaScreen assay, the selectivity of Compound 1 against the following nuclear receptors involved in the metabolic pathways can be evaluated: LXRα, LXRβ, PXR, CAR, […], PPARδ, PPARγ, RAR, RARα, VDR, TR, PR, RXRα, GR, and ER.
# PPARγ = PPARγ (Homo sapiens, UniProt P37231); assay: AlphaScreen nuclear receptor profile (agonist mode), PPARγ; type: biochemical
# PXR = PXR (Homo sapiens, UniProt O75469); assay: AlphaScreen nuclear receptor profile (agonist mode), PXR; type: biochemical
# RAR = assay: AlphaScreen nuclear receptor profile (agonist mode), RAR; type: biochemical
# RXRα = RXRα (Homo sapiens, UniProt P19793); assay: AlphaScreen nuclear receptor profile (agonist mode), RXRα; type: biochemical
# VDR = VDR (Homo sapiens, UniProt P11473); assay: AlphaScreen nuclear receptor profile (agonist mode), VDR; type: biochemical
# ER = assay: AlphaScreen nuclear receptor profile (agonist mode), ER; type: biochemical
# GR = GR (Homo sapiens, UniProt P04150); assay: AlphaScreen nuclear receptor profile (agonist mode), GR; type: biochemical
# PR = PR (Homo sapiens, UniProt P06401); assay: AlphaScreen nuclear receptor profile (agonist mode), PR; type: biochemical
# TR = assay: AlphaScreen nuclear receptor profile (agonist mode), TR; type: biochemical
# HepG2 cells [3] = assay: In vitro cytotoxicity, LDH release; type: cell-based; details: Homo sapiens
# HepG2 cells [4] = assay: In vitro cytotoxicity, cell viability by ATP content; type: cell-based; details: Homo sapiens, HepG2, read-out: ATP Content EC50
# CYP1A2 = target: T4, CYP1A2 (Homo sapiens, UniProt P05177); assay: CYP450 screening, fluorescent signal, recombinant baculosomes, CYP1A2; type: in vitro ADME
# T4 construct: purchased Invitrogen
# CYP3A4 = target: T5, CYP3A4 (Homo sapiens, UniProt P08684); assay: CYP450 screening, fluorescent signal, recombinant baculosomes, CYP3A4; type: in vitro ADME
# T5 construct: purchased Invitrogen
# CYP2C9 = target: T6, CYP2C9 (Homo sapiens, UniProt P11712); assay: CYP450 screening, fluorescent signal, recombinant baculosomes, CYP2C9; type: in vitro ADME
# T6 construct: purchased Invitrogen
# CYP2C19 = target: T7, CYP2C19 (Homo sapiens, UniProt P33261); assay: CYP450 screening, fluorescent signal, recombinant baculosomes, CYP2C19; type: in vitro ADME
# T7 construct: purchased Invitrogen; host or cells: baculosomes (insect-cell microsomes)
# CYP2D6 = target: T8, CYP2D6 (Homo sapiens, UniProt P10635); assay: CYP450 screening, fluorescent signal, recombinant baculosomes, CYP2D6; type: in vitro ADME
# T8 construct: purchased Invitrogen; host or cells: baculosomes (insect-cell microsomes)
# CYP2E1 = target: T9, CYP2E1 (Homo sapiens, UniProt P05181); assay: CYP450 screening, fluorescent signal, recombinant baculosomes, CYP2E1; type: in vitro ADME
# T9 construct: purchased Invitrogen; host or cells: baculosomes (insect-cell microsomes)
# From the text: To evaluate the potential of Compound 1 for drug-drug interactions, the six main CYP450 isoforms (CYP1A2, CYP2C9, CYP2C19, CYP2D6, CYP2E1, CYP3A4) are investigated (Obach, et al., J Pharmacol. Exp. Ther, 2006, 316, 336-348).
# Pgp = target: T10, Pgp (Homo sapiens, UniProt P08183); assay: Pgp-Glo Assay, Pgp ATPase activity; type: in vitro ADME; details: read-out: Pgp Substrate EC50
# T10 construct: purchased V3591 and V3601
# From the text: The impact of Compound 1 on Pgp ATPase activity was examined in Pgp-GloTM Assay (Technical Bulletin; Pgp-GloTM Assay Systems Instructions for Use of Products […] and […]; Revised November 2015) according to the manufacturer's standard protocol.
# hERG potassium channel = hERG potassium channel (Homo sapiens, UniProt Q12809); assay: biochemical
smiles,measurement,setting,value
"CC[C@H]1[C@@H](O)[C@@H]2[C@H](C[C@H](O)[C@]3(C)[C@@H]([C@H](C)C[C@H](C)C(=O)O)CC[C@@H]23)[C@@]2(C)CC[C@@H](O)C[C@@H]12 [Compound C, 6α-ethyl-23(S)-methyl-3α,7α,12α trihydroxy-5β-cholan-24-oic acid]",solubility,Water solubility,99 mM
same,CMC (Critical Micellar Concentration),[1],2 mM
same,STCMC (Surface Tension at CMC),Surface tension at CMC,50.1
same,LogPA- (1-octanol-water partition coefficient),[2],1.4
"CC[C@H]1[C@@H](O)C2C3CC[C@H]([C@H](C)C[C@H](C)C(=O)O)[C@@]3(C)CCC2[C@@]2(C)CC[C@@H](O)C[C@@H]12 (stereo partly drawn) [Compound D, 6α-ethyl-23(R)-methyl chenodeoxycholic acid]",solubility,Water solubility,15 mM
same,LogPA- (1-octanol-water partition coefficient),[2],2.9
"CC[C@H]1[C@@H](O)[C@@H]2[C@H](CC[C@]3(C)[C@@H]([C@H](C)CCC(=O)O)CC[C@@H]23)[C@@]2(C)CC[C@@H](O)C[C@@H]12 [Compound A, 6α-ethyl-3α,7α-dihydroxy-5β-cholan-24-oic acid]",solubility,Water solubility,9 mM
same,CMC (Critical Micellar Concentration),[1],2.9 mM
same,STCMC (Surface Tension at CMC),Surface tension at CMC,43.2-48.8
same,LogPA- (1-octanol-water partition coefficient),[2],2.5
"CCC1C(O)C2C3CCC(C(C)CCOS(=O)(=O)O)C3(C)CCC2C2(C)CCC(O)CC12 (stereo not drawn) [Compound B, 6α-ethyl-3α,7α,23-trihydroxy-24-nor-5β-cholan-23-sulfate sodium salt]",LogPA- (1-octanol-water partition coefficient),[2],2.0
CC[C@H]1[C@@H](O)C2C3C[C@H](O)[C@H]([C@H](C)CCC(=O)O)[C@@]3(C)CCC2[C@@]2(C)CC[C@@H](O)C[C@@H]12 (some centres unmarked) [Compound E],solubility,Water solubility,120 mM
same,CMC (Critical Micellar Concentration),[1],5.9 mM
same,STCMC (Surface Tension at CMC),Surface tension at CMC,52.4
same,LogPA- (1-octanol-water partition coefficient),[2],1.6
"CC[C@H]1[C@@H](O)C2C3CC[C@H]([C@H](C)CCC(=O)O)[C@@]3(C)C[C@H](O)C2[C@@]2(C)CC[C@@H](O)C[C@@H]12 (stereo partly drawn) [Compound F, 3α,7α,11β-dihydroxy-6α-ethyl-5β-cholan-24-oic acid]",solubility,Water solubility,143 to 150 mM
same,LogPA- (1-octanol-water partition coefficient),[2],0.8
"CC[C@H]1[C@@H](O)[C@@H]2[C@H]([C@@H](O)C[C@]3(C)[C@@H]([C@H](C)CCC(=O)O)CC[C@@H]23)[C@@]2(C)CCCC[C@@H]12 [Compound 1, 7α,11β-dihydroxy-6α-ethyl-5β-cholan-24-oic acid]","FXR activation, in words",Human FXR,potent and selective activator
same,EC50,"Human FXR; Table 1, Human FXR-LBD-GST with biotinylated LXXLL SRC-1 peptide, quantity not named in head (EC50 per Table 2)",0.14 ± 0.04 µM
same,"FXR activation, in words",Human FXR; listed as compound of this invention,potent FXR agonists
same,"selectivity for FXR over TGR5, in words",Human TGR5,high selectivity for FXR over TGR5
same,EC50,"Human TGR5; Table 1, intracellular cAMP, NCI-H716 cells, quantity not named in head (EC50 per Table 3), read-out: HTR-FRET (cAMP) Human TGR5 (NCI-H716 cells)",> 200 µM
same,EC50,"Human TGR5; Table 3, cross species, read-out: hTGR5 EC50",> 200 µM
same,EC50,mFXR,0.6 ± 0.02 µM
same,EC50,rFXR,0.49 ± 0.01 µM
same,EC50,dFXR,1.65 ± 0.05 µM
same,EC50,mTGR5,> 200 µM
same,EC50,rTGR5,> 200 µM
same,EC50,dTGR5,> 200 µM
same,EC50,LXRα,> 300 µM
same,EC50,CAR,> 300 µM
same,EC50,LXRβ,> 300 µM
same,EC50,PPARα,> 300 µM
same,EC50,PPARδ,> 300 µM
same,EC50,PPARγ,> 300 µM
same,EC50,PXR,> 300 µM
same,EC50,RAR,> 300 µM
same,EC50,RXRα,> 300 µM
same,EC50,VDR,> 300 µM
same,EC50,ER,> 300 µM
same,EC50,GR,> 300 µM
same,EC50,PR,> 300 µM
same,EC50,TR,> 300 µM
same,EC50,HepG2 cells [3],> 300 µM
same,EC50,HepG2 cells [4],> 300 µM
same,IC50,CYP1A2,> 10 µM
same,IC50,"CYP3A4; Blue Substrate, read-out: CYP3A4 (Blue Substrate) IC50",> 10 µM
same,IC50,"CYP3A4; Green Substrate, read-out: CYP3A4 (Green Substrate) IC50",> 10 µM
same,IC50,CYP2C9,> 10 µM
same,IC50,CYP2C19,> 10 µM
same,IC50,CYP2D6,> 10 µM
same,IC50,CYP2E1,> 10 µM
same,EC50,Pgp,> 300 µM
same,CMC (Critical Micellar Concentration),[1],2.0 mM
same,LogPA- (1-octanol-water partition coefficient),[2],1.8
same,IC50,hERG potassium channel,> 100 µM
